In patent US11744808B2, “Compositions and methods for treating non-alcoholic steatohepatitis” (ALGERNON PHARMACEUTICALS INC., priority 2018, dated 2023):

Legend:
[1] = system: murine STAM™ model of NASH-HCC; assay: Murine STAM model of NASH-HCC, second study (Example 2): H&E NAFLD activity scoring and Sirius red fibrosis area; type: in vivo, C57BL/6 mice; settings: for NAFLD Activity Scores, hepatic steatosis, lobular inflammation and hepatocellular ballooning (conclusion): Bromantane at 40 mg/kg, Cenicriviroc at 30 mg/kg
Protocol: As before, male newborn C57BL/6 mice were used. All mice were born from pathogen-free 14 day-pregnant mice obtained from Japan SLC, Inc. (Hamamatsu, Japan) prior to the start of the study.
(§1) The murine STAM™ model of NASH-HCC was performed according to previously described methods known in the art (Takakura et al, Characterization of non-alcoholic steatohepatitis, Anticancer Res, 34(9):4849-55 (2014); Fujii et al, (2013)). NASH was induced in male mice by a single subcutaneous injection of 200 μg of streptozotocin (STZ, Sigma, Mo., USA) at 2 days after birth and continuous feeding after 4 weeks of age (day 28±2) with a high fat diet (CLEA Japan Inc, Tokyo, Japan) given ad libitum.
Following induction of NASH, the mice were randomized into 7 individual study groups of 8 mice each at 6 weeks of age (day 42±2) based on their body weight, the day before the start of treatment.
One day following randomization, the mice were administered a once-daily oral treatment from 6 weeks of age plus one day (day 43±2, treatment Day 1) to 9 weeks of age. The mice in 6 of the 7 study groups were treated individually with a therapeutic amount of a pharmacologic compound formulated with a pharmaceutically acceptable vehicle. […] The pharmaceutically acceptable vehicle in all groups was 0.5% CMC. […] Individual body weight was measured daily during the treatment period. Survival, clinical signs and behavior of mice were also monitored daily.
In each case, a volume of 10 mL/kg of 0.5% CMC was administered orally with (or without) the active ingredient as noted in Table 3 from 6 to 9 weeks of age. All mice were then sacrificed at 9 weeks of age. Blood samples were collected from all mice and the liver from each mouse was removed for analysis.
(§2) Assessment of Steatohepatitis: Liver cross-sections were subjected to hematoxylin and eosin (H&E) staining using standard techniques for histological assessment of hepatic steatosis, lobular inflammation and hepatocellular ballooning. The level of steatohepatitis severity in each liver cross-section was indicated by NAFLD Activity Scores of: 0 (normal), 1-2 (NAFLD), 3-4 (borderline) or at least 5 (NASH) in 3 randomly selected fields of H&E-stained liver cross-sections of 4 μm thickness at ×50 magnification for evaluation of steatosis and ×200 magnification each for evaluation of inflammation and evaluation of ballooning. The NAFLD Activity Score is the unweighted sum of the following: 1) hepatic steatosis score (0-3); 2) lobular inflammation score ([…]); 3) hepatocellular ballooning score (0-2).
The liver cross-sections of the treated groups were also subjected to Sirius-red staining using standard techniques for histological estimation of the percentage of fibrosis area. For quantitative analysis of fibrosis area, bright field images of Sirius red-stained sections were captured around the central vein using a digital camera (DFC295; Leica, Germany) at 200-fold magnification, and the positive areas in 5 fields/section were measured using ImageJ software (National Institute of Health, USA).
(§3) Values are arithmetic means. Comparison between the study group and positive control group was performed using a two-tailed, heteroscedastic (two-sample unequal variance) Student's T-Test. A P-value of <0.05 was considered statistically significant following a Bonferroni post-hoc statistical correction analysis for multiple groups (Bonferroni Multiple Comparison Test). In this case, the correction factor was 7, corresponding to the number of study groups. Following the usual convention, the P-value classification and statistical significance levels chosen are shown in Table 2 (above) alongside their corresponding classification scores.

[2] = system: murine STAM™ model of NASH-HCC; assay: Murine STAM model of NASH-HCC, first study (Example 1): H&E NAFLD activity scoring and Sirius red fibrosis area; type: in vivo, C57BL/6 mice; settings: for hepatocellular ballooning score relative to Vehicle control / NAFLD activity score relative to Vehicle control / fibrosis area (Sirius red-positive area) compared with the Vehicle group: once daily oral, 6 to 9 weeks of age, Bromantane 20 mg/kg, Istradefylline 18 mg/kg; for hepatocellular ballooning score relative to Vehicle control: Irsogladine 1 mg/kg; for NAFLD activity score relative to Vehicle control / fibrosis area (Sirius red-positive area) compared with the Vehicle group: Telmisartan 10 mg/kg
Protocol: Male newborn C57BL/6 mice were used. All mice were born from pathogen-free 14 day-pregnant mice obtained from Japan SLC, Inc. (Hamamatsu, Japan) prior to the start of the study.
as §1
Following induction of NASH, the mice were randomized into 12 individual study groups of 8 mice each at 6 weeks of age (day 42±2) based on body weight, the day before the start of treatment.
One day following randomization, the mice were administered a once-daily oral treatment from 6 weeks of age plus one day (day 43±2, treatment Day 1) to 9 weeks of age (hereinafter known as the “treatment period”). The mice in 11 of the 12 study groups (hereafter known as “treatment groups”) were treated individually with a distinct pharmacologic compound formulated with a pharmaceutically acceptable vehicle. […] The pharmaceutically acceptable vehicle in all groups was 0.5% carboxymethyl cellulose (CMC). […] Individual body weight was measured daily during the treatment period. Survival, clinical signs and behavior of mice were also monitored daily.
In each case, a volume of 10 mL/kg of 0.5% CMC was administered orally with (or without) the active ingredient as noted in Table 1 from 6 to 9 weeks of age until sacrifice. One exception being Trapadil, which was administered orally with one dosing of 120 mg/kg on Day 0 and then at the daily dose of 60 mg/kg starting on treatment Day 1. All mice were then sacrificed at 9 weeks of age. Blood samples were collected from all mice and the liver from each mouse was removed for analysis.
as §2
For quantitative analysis of fibrosis area, bright field images of Sirius red-stained sections were captured around the central vein using a digital camera (DFC295; Leica, Germany) at 200-fold magnification, and the positive areas in 5 fields/section were measured using ImageJ software (National Institute of Health, USA).
as §3, with “12,” for “7,”, “2” for “2 (above)”

[3] = once daily oral, 6 to 9 weeks of age, Bromantane high 40 mg/kg, Bemithyl 200 mg/kg, Cenicriviroc 30 mg/kg, Telmisartan 10 mg/kg
[4] = once daily oral, 6 to 9 weeks of age, Bromantane high 40 mg/kg, Cenicriviroc 30 mg/kg, Bemithyl 200 mg/kg, Telmisartan 10 mg/kg

SMILES	fibrosis area (Sirius red-positive area) compared with the Vehicle group [1, 3]	NAFLD activity score relative to Vehicle control [1, 4]	hepatocellular ballooning score relative to Vehicle control [2]	NAFLD activity score relative to Vehicle control [2]	fibrosis area (Sirius red-positive area) compared with the Vehicle group [2]	NAFLD Activity Scores, hepatic steatosis, lobular inflammation and hepatocellular ballooning (conclusion) [1]	steatosis score relative to Vehicle control ([1]; once daily oral, 6 to 9 weeks of age, Bromantane high 40 mg/kg, Telmisartan 10 mg/kg)	fibrosis area (Sirius red-positive area) compared with the Vehicle group ([1]; once daily oral, 6 to 9 weeks of age, Bromantane low 20 mg/kg)	NAFLD Activity Scores, hepatic steatosis, lobular inflammation and hepatocellular ballooning (conclusion) ([2]; Istradefylline at 18 mg/kg, Telmisartan at 10 mg/kg oral, compared to the Vehicle group)
CCSc1nc2ccccc2[nH]1 [Bemithyl, 2-Ethylsulfanyl-1H-benzoimidazole]	particularly statistically significant decrease	statistically significant and clinically relevant composite reduction	–	–	–	–	–	–	–
Brc1ccc(NC2C3CC4CC(C3)CC2C4)cc1 (stereo not drawn) [Bromantane, N-(4-Bromophenyl)adamantan-2-amine]	statistically significant decreases	Statistically significant reductions	Statistically significant reductions	Statistically significant reductions	significant decreases	showed improvement	Statistically significant reductions	statistically significant decreases	–
CCCCOCCOc1ccc(-c2ccc3c(c2)/C=C(/C(=O)Nc2ccc([S@@+]([O-])Cc4cncn4CCC)cc2)CCCN3CC(C)C)cc1 [Cenicriviroc]	statistically significant decreases	Statistically significant reductions	–	–	–	showed improvement	–	–	–
Nc1nc(N)nc(-c2cc(Cl)ccc2Cl)n1 [Irsogladine, 6-(2,5-Dichlorophenyl)-1,3,5-triazine-2,4-diamine]	–	–	Statistically significant reductions	–	–	–	–	–	–
CCn1c(=O)c2c(nc(/C=C/c3ccc(OC)c(OC)c3)n2C)n(CC)c1=O [Istradefylline, 8-[(E)-2-(3,4-dimethoxyphenyl)vinyl]-1,3-diethyl-7-methyl-3,7-dihydro-1H-purine-2,6-dione]	–	–	Statistically significant reductions	Statistically significant reductions	significant decreases	–	–	–	showed improvement
